# Assay results published in PMC8206213, “An L-2-hydroxyglutarate biosensor based on specific transcriptional regulator LhgR” (Nature Communications, 2021).
# Where “and” joins values, the source holds several entries; their conditions need not be identical. Equal entries are not always repeated.
# Columns and labels:
# [1] = tested on: LHGFR0N3C expressed in E. coli BL21(DE3); experiment: Specificity of LHGFR0N3C expressed in E. coli BL21(DE3), 1 mM compounds; assay type: cell-based; conditions: for Emission ratio: 1 mM compound, Fig. 5c; for Increase of the emission ratio in E. coli BL21(DE3): 1 mM exogenous compound
# Experimental: To characterize the sensitivity and specificity of LHGFR expressed in E. coli BL21(DE3), 90 μL cell suspensions following 8 h carbon starvation were mixed with 10 μL increasing concentrations of L-2-HG or other compounds, and then added into a black 96-well plate (total 100 μL/per well), the fluorescence intensities were determined using an EnSight microplate reader (PerkinElmer, USA) and the following instrument settings: excitation at 430 nm, emission at 485 nm (mTFP) and 528 nm (Venus), time intervals of 5 min, the temperature at 37 °C, and shake at 180 rpm.
# LHGFR0N3C = experiment: Influence of other compounds on the response of purified LHGFR0N3C to L-2-HG; assay type: binding, Pseudomonas putida W619; conditions: for Emission ratio: Suppl. Fig. 9a, L-2-HG alone or with the compound, three replicates
# Experimental: (§1) Purified L-2-HG biosensors and different compounds were diluted by 50 mM Tris-HCl buffer (pH 7.4), mixed together in a black 96-well plate at a volume ratio of 3:1, and the fluorescence intensities were measured using an EnSight microplate reader (PerkinElmer, USA) with excitation at 430 nm, emission at 485 nm (mTFP) and 528 nm (Venus). […] The [L-2-HG], Kd, and p refer to the L-2-HG concentration, apparent dissociation constant, and Hill slope, respectively. Emission spectra were recorded at 430 nm excitation, in steps of 2 nm. Excitation spectra were recorded using emission at 550 nm, excitation from 380 to 535 nm in steps of 2 nm.
# LHGFR0N7C = experiment: Specificity of purified LHGFR0N7C, emission ratio with 240 μM compounds; assay type: binding, Pseudomonas putida W619; conditions: 240 μM compound
# Experimental: as §1
compound,measurement,setting,value
"O=C(O)CCCC(=O)O [Glutarate, glutarate]",Emission ratio,[1]; 0 min,1.019 and 1.014 and 1.009
same,Emission ratio,[1]; 5 min,1.014 and 1.015 and 0.998
same,Emission ratio,[1]; 10 min,1.024 and 1.012 (2×)
same,Emission ratio,[1]; 15 min,1.024 and 1.01 and 1.013
same,Emission ratio,[1]; 20 min,1.025 and 1.007 and 1.004
same,Emission ratio,[1]; 25 min,1.02 and 1.008 and 1.012
same,Emission ratio,[1]; 30 min,1.022 and 1.0136 and 1.013
same,Emission ratio,[1]; 35 min,1.0109 and 1.008 and 1.004
same,Emission ratio,[1]; 40 min,1.017 and 1.002 and 1.012
same,Emission ratio,[1]; 45 min,1.022 and 1.0116 and 1.014
same,Emission ratio,[1]; 50 min,1.01 and 1 and 1.016
same,Emission ratio,[1]; 55 min,1.008 and 1.012 and 1.02
same,Emission ratio,[1]; 60 min,1.014 and 1.01 and 1.011
same,Emission ratio,[1]; 65 min,1.021 and 1.007 and 1.017
same,Emission ratio,[1]; 70 min,1.032 and 1.006 and 1.011
same,Emission ratio,[1]; 75 min,1.016 and 1.008 and 1.028
same,Emission ratio,[1]; 80 min,0.9989 and 1.018 and 1.024
same,Emission ratio,[1]; 85 min,1.011 and 1.013 and 1.026
same,Emission ratio,[1]; 90 min,1.005 and 1.016 and 1.027
same,Increase of the emission ratio in E. coli BL21(DE3),[1],could not
same,Emission ratio,LHGFR0N3C,2.055 and 2.045 and 2.058
same,Emission ratio,LHGFR0N7C,1.71 (2×) and 1.717
same,Induction of emission ratio changes,LHGFR0N7C,None
"O=C(O)CC[C@H](O)C(=O)O [L-2-HG, L-2-Hydroxyglutarate]",Emission ratio,[1]; 0 min,1.025 and 0.9964 and 0.9897
same,Emission ratio,[1]; 5 min,1.0102 and 1.019 and 1.007
same,Emission ratio,[1]; 10 min,1.0776 and 1.069 and 1.057
same,Emission ratio,[1]; 15 min,1.152 and 1.136 and 1.118
same,Emission ratio,[1]; 20 min,1.219 and 1.203 and 1.181
same,Emission ratio,[1]; 25 min,1.256 and 1.2441 and 1.233
same,Emission ratio,[1]; 30 min,1.305 and 1.29 and 1.273
same,Emission ratio,[1]; 35 min,1.298 and 1.29 and 1.292
same,Emission ratio,[1]; 40 min,1.314 and 1.317 and 1.304
same,Emission ratio,[1]; 45 min,1.326 and 1.316 and 1.3122
same,Emission ratio,[1]; 50 min,1.332 and 1.331 and 1.305
same,Emission ratio,[1]; 55 min,1.343 and 1.33 and 1.32
same,Emission ratio,[1]; 60 min,1.3375 and 1.331 and 1.312
same,Emission ratio,[1]; 65 min,1.326 and 1.339 and 1.336
same,Emission ratio,[1]; 70 min,1.339 and 1.343 and 1.334
same,Emission ratio,[1]; 75 min,1.32 and 1.336 and 1.325
same,Emission ratio,[1]; 80 min,1.332 and 1.339 and 1.343
same,Emission ratio,[1]; 85 min,1.326 and 1.34 and 1.332
same,Emission ratio,[1]; 90 min,1.323 and 1.316 and 1.34
same,Increase of the emission ratio in E. coli BL21(DE3),[1],could significantly increase the emission ratio
same,Emission ratio of 528/485,"LHGFR0N3C; L-2-HG concentration 0.01, in the absence of 2-KG, Suppl. Fig. 9g",1.4026 and 1.407 and 1.399
same,Emission ratio of 528/485,"LHGFR0N3C; L-2-HG concentration 0.01, in the absence of D-2-HG, Suppl. Fig. 9e",1.361 and 1.439 and 1.415
same,Emission ratio of 528/485,"LHGFR0N3C; L-2-HG concentration 0.01, in the presence of 2-KG, Suppl. Fig. 9g",1.363
same,Emission ratio of 528/485,"LHGFR0N3C; L-2-HG concentration 0.01, in the presence of D-2-HG, Suppl. Fig. 9e",1.406 and 1.467 and 1.446
same,Emission ratio of 528/485,"LHGFR0N3C; L-2-HG concentration 0.1, in the absence of D-2-HG, Suppl. Fig. 9e",1.367 and 1.431 and 1.424
same,Emission ratio of 528/485,"LHGFR0N3C; L-2-HG concentration 0.1, in the presence of D-2-HG, Suppl. Fig. 9e",1.407 and 1.464 and 1.416
same,Emission ratio of 528/485,"LHGFR0N3C; L-2-HG concentration 0.2, in the absence of D-2-HG, Suppl. Fig. 9e",1.3539 and 1.456 and 1.407
same,Emission ratio of 528/485,"LHGFR0N3C; L-2-HG concentration 0.2, in the presence of D-2-HG, Suppl. Fig. 9e",1.417 and 1.4607 and 1.422
same,Emission ratio of 528/485,"LHGFR0N3C; L-2-HG concentration 1, in the absence of D-2-HG, Suppl. Fig. 9e",1.3919 and 1.421 and 1.443
same,Emission ratio of 528/485,"LHGFR0N3C; L-2-HG concentration 1, in the presence of D-2-HG, Suppl. Fig. 9e",1.445 and 1.477 and 1.4328
same,Emission ratio of 528/485,"LHGFR0N3C; L-2-HG concentration 2, in the absence of D-2-HG, Suppl. Fig. 9e",1.397 and 1.479 and 1.464
same,Emission ratio of 528/485,"LHGFR0N3C; L-2-HG concentration 2, in the presence of D-2-HG, Suppl. Fig. 9e",1.472 and 1.492 and 1.494
same,Emission ratio of 528/485,"LHGFR0N3C; L-2-HG concentration 10, in the absence of D-2-HG, Suppl. Fig. 9e",1.597 and 1.623 and 1.644
same,Emission ratio of 528/485,"LHGFR0N3C; L-2-HG concentration 10, in the presence of D-2-HG, Suppl. Fig. 9e",1.611 and 1.627 and 1.593
same,Emission ratio of 528/485,"LHGFR0N3C; L-2-HG concentration 20, in the absence of 2-KG, Suppl. Fig. 9g",1.741 and 1.744 and 1.757
same,Emission ratio of 528/485,"LHGFR0N3C; L-2-HG concentration 20, in the absence of D-2-HG, Suppl. Fig. 9e",1.77 and 1.748 and 1.778
same,Emission ratio of 528/485,"LHGFR0N3C; L-2-HG concentration 20, in the presence of 2-KG, Suppl. Fig. 9g",1.682 and 1.691 and 1.6943
same,Emission ratio of 528/485,"LHGFR0N3C; L-2-HG concentration 20, in the presence of D-2-HG, Suppl. Fig. 9e",1.748 and 1.775 and 1.796
same,Emission ratio of 528/485,"LHGFR0N3C; L-2-HG concentration 100, in the absence of 2-KG, Suppl. Fig. 9g",1.995 and 2.046 and 2.033
same,Emission ratio of 528/485,"LHGFR0N3C; L-2-HG concentration 100, in the absence of D-2-HG, Suppl. Fig. 9e",1.9389 and 1.983 and 2.002
same,Emission ratio of 528/485,"LHGFR0N3C; L-2-HG concentration 100, in the presence of 2-KG, Suppl. Fig. 9g",1.979 and 1.983 and 2.015
same,Emission ratio of 528/485,"LHGFR0N3C; L-2-HG concentration 100, in the presence of D-2-HG, Suppl. Fig. 9e",2.01 and 1.942 and 2.017
same,Emission ratio of 528/485,"LHGFR0N3C; L-2-HG concentration 200, in the absence of 2-KG, Suppl. Fig. 9g",2.097 and 2.071 and 2.086
same,Emission ratio of 528/485,"LHGFR0N3C; L-2-HG concentration 200, in the absence of D-2-HG, Suppl. Fig. 9e",2.026 and 2.0171 and 2.117
same,Emission ratio of 528/485,"LHGFR0N3C; L-2-HG concentration 200, in the presence of 2-KG, Suppl. Fig. 9g",2.058 and 2.06 and 2.089
same,Emission ratio of 528/485,"LHGFR0N3C; L-2-HG concentration 200, in the presence of D-2-HG, Suppl. Fig. 9e",2.039 and 1.978 and 2.053
same,Emission ratio of 528/485,"LHGFR0N3C; L-2-HG concentration 1000, in the absence of 2-KG, Suppl. Fig. 9g",2.1941 and 2.174 and 2.177
same,Emission ratio of 528/485,"LHGFR0N3C; L-2-HG concentration 1000, in the absence of D-2-HG, Suppl. Fig. 9e",2.163 and 2.184 and 2.199
same,Emission ratio of 528/485,"LHGFR0N3C; L-2-HG concentration 1000, in the presence of 2-KG, Suppl. Fig. 9g",2.1301 and 2.167 and 2.163
same,Emission ratio of 528/485,"LHGFR0N3C; L-2-HG concentration 1000, in the presence of D-2-HG, Suppl. Fig. 9e",2.202 and 2.174 and 2.19
same,Emission ratio of 528/485,"LHGFR0N3C; L-2-HG concentration 2000, in the absence of 2-KG, Suppl. Fig. 9g",2.149 and 2.166 and 2.182
same,Emission ratio of 528/485,"LHGFR0N3C; L-2-HG concentration 2000, in the absence of D-2-HG, Suppl. Fig. 9e",2.176 and 2.24 and 2.201
same,Emission ratio of 528/485,"LHGFR0N3C; L-2-HG concentration 2000, in the presence of 2-KG, Suppl. Fig. 9g",2.154 and 2.1518 and 2.167
same,Emission ratio of 528/485,"LHGFR0N3C; L-2-HG concentration 2000, in the presence of D-2-HG, Suppl. Fig. 9e",2.195 and 2.175 and 2.2011
same,Emission ratio,LHGFR0N3C,2.053 and 2.0953 and 2.06
same,Emission ratio,LHGFR0N7C,2.5923 and 2.613 and 2.627
